Reference: the supplement of paper PMC12137928
Counter-ions that a name gives are not always drawn.

Tests used:
HCT116 [1] = details: 72 h
Summary of the method: (§1)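 IC50 and maximal efficacy were derived from four-parameter Hill curve fits. The underlying CellTiter-Glo luminescence was scaled so that vehicle equals 0% and positive control equals -100%, and was then pattern-corrected. HCT116 cells had been seeded in 1536-well plates at 250 per well.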

HCT116 [2] = experiment: efficacy (maximum % inhibition of viability vs DMSO); higher = more cytotoxic; details: 72 h
Summary of the method: as §1

Row | IC50 cell viability (HCT116 [1]; ICRF193 0 nM) | IC50 cell viability (HCT116 [1]; ICRF193 200 nM) | Structure (SMILES) | efficacy (HCT116 [2]; ICRF193 0 nM) | efficacy (HCT116 [2]; ICRF193 200 nM)
1 | 23.1 µM | 29.1 µM | C=CC(=O)N1CCC[C@@H](n2nc(-c3ccc(Oc4ccccc4)cc3)c3c(N)ncnc32)C1 | 47.6% | 72.8%
2 | 20.6 µM | 20.6 µM | C=C[C@@H]1C[C@]1(NC(=O)[C@@H]1C[C@@H](Oc2ncc(OC)c3ccc(Cl)cc23)CN1C(=O)[C@@H](NC(=O)OC(C)(C)C)C(C)(C)C)C(=O)NS(=O)(=O)C1CC1 | 92.8% | 92.4%
3 | 20.6 µM | 23.1 µM | CCCCC[C@H](O)C=C[C@H]1[C@@H](O)CC(=O)[C@@H]1CCCCCCC(=O)O | 73.2% | 73.8%
4 | 25.9 µM | 20.6 µM | C[C@@H]1CCO[C@H]2Cn3cc(C(=O)NCc4ccc(F)cc4F)c(=O)c(O)c3C(=O)N12 | 82.5% | 106%
5 | 18.3 µM | 29.1 µM | C#C[C@]1(OC(C)=O)CC[C@H]2[C@@H]3CCC4=CC(=NO)CC[C@@H]4[C@H]3CC[C@@]21CC (mixture of isomers) [Norgestimate] | 84% | 102%
6 | 29.1 µM | 18.3 µM | CNCCC(Oc1ccc(C(F)(F)F)cc1)c1ccccc1 (racemic) [(+/-) -Fluoxetine] | 106% | 102%
7 | 29.1 µM | 20.6 µM | O[C@@H](CNC[C@H](O)[C@H]1CCc2cc(F)ccc2O1)[C@@H]1CCc2cc(F)ccc2O1 (racemic) [rac Nebivolol hydrochloride] | 121% | 98.2%
8 | 7.3 µM | 4.61 µM | CCCCCCCCCCCC[n+]1ccc2ccccc2c1 [2-Dodecylisoquinolinium tosylate] | 101% | 103%
9 | > 45.8 µM | 29.1 µM | O=C(Nc1ccc([N+](=O)[O-])cc1)Nc1ccc([N+](=O)[O-])cc1 [4,4'-Dinitrodiphenylurea] | – | 55.9%
10 | 8.2 µM | 8.2 µM | Nc1ncn([C@@H]2O[C@H](CO)[C@@H](O)[C@H]2O)c(=O)n1 [5-Azacitidine] | 121% | 98.6%
11 | 3.66 µM | 2.06 µM | Nc1nc(=S)c2[nH]cnc2[nH]1 [6-Thioguanine] | 97.5% | 91.8%
12 | 2.59 µM | 3.26 µM | S=c1nc[nH]c2nc[nH]c12 [6-mercaptopurine] | 91.6% | 83.2%
13 | 23.1 µM | 9.2 µM | Nc1c2ccccc2nc2ccccc12 [9-Aminoacridine, monohydrochloride, monohydrate] | 103% | 90.6%
14 | 20.6 µM | 18.3 µM | C[C@H](Oc1cc(-c2cnn(C3CCNCC3)c2)cnc1N)c1c(Cl)ccc(F)c1Cl [(S)-Crizotinib] | 89.7% | 91.2%
15 | 20.6 µM | 25.9 µM | COc1c(-c2ccc3cc(NS(C)(=O)=O)ccc3c2)cc(-n2ccc(=O)[nH]c2=O)cc1C(C)(C)C [ABT-333] | 94.6% | 102%
16 | 29.1 µM | 18.3 µM | Cc1cnc(C(=O)N[C@H]2CCCCC/C=C\[C@@H]3C[C@@]3(C(=O)NS(=O)(=O)C3CC3)NC(=O)[C@@H]3C[C@@H](Oc4nc5ccccc5c5ccccc45)CN3C2=O)cn1 [ABT-450] | 110% | 100%
17 | 0.206 µM | 0.146 µM | N=c1ccn2c(n1)O[C@H]1[C@H](O)[C@@H](CO)O[C@H]12 [ANCITABINE HYDROCHLORIDE] | 58.5% | 56.7%
18 | 1.64 µM | 0.73 µM | C[C@H]1[C@H](OC(=O)CCC(=O)O)O[C@@H]2O[C@@]3(C)CC[C@H]4[C@H](C)CC[C@@H]1[C@@]24OO3 [ARTESUNATE] | 93.1% | 86.8%
19 | 16.4 µM | 18.3 µM | CCN1CCN(Cc2ccc(Nc3ncc(F)c(-c4cc(F)c5nc(C)n(C(C)C)c5c4)n3)nc2)CC1 [Abemaciclib] | 116% | 112%
20 | 44.7 µM | 50.1 µM | CC(=O)Oc1cc(C)c(OC(C)=O)c2ccccc12 [Acetomenaphthone] | 107% | 108%
21 | 23.1 µM | 9.2 µM | CC[C@@]1(O)C[C@H](O[C@H]2C[C@H](N(C)C)[C@H](O[C@H]3C[C@H](O)[C@H](O[C@H]4CCC(=O)[C@H](C)O4)[C@H](C)O3)[C@H](C)O2)c2c(cc3c(c2O)C(=O)c2c(O)cccc2C3=O)[C@H]1C(=O)OC [Aclarubicin] | 122% | 112%
22 | 16.4 µM | 23.1 µM | C[n+]1c2cc(N)ccc2cc2ccc(N)cc21.Nc1ccc2cc3ccc(N)cc3nc2c1 [Acriflavine hydrochloride] | 50.4% | 56.5%
23 | 0.0164 µM | 0.0206 µM | Cc1c2oc3c(C)ccc(C(=O)N[C@@H]4C(=O)N[C@H](C(C)C)C(=O)N5CCC[C@H]5C(=O)N(C)CC(=O)N(C)[C@@H](C(C)C)C(=O)O[C@@H]4C)c3nc-2c(C(=O)N[C@@H]2C(=O)N[C@H](C(C)C)C(=O)N3CCC[C@H]3C(=O)N(C)CC(=O)N(C)[C@@H](C(C)C)C(=O)O[C@@H]2C)c(N)c1=O [Actinomycin D] | 48.1% | 79.3%
24 | 14.6 µM | 13 µM | CC(C)(C)C(=O)OCOP(=O)(COCCn1cnc2c(N)ncnc21)OCOC(=O)C(C)(C)C [Adefovir dipivoxil] | 63.1% | 79.3%
25 | 29.1 µM | 18.3 µM | CN(C)C/C=C/C(=O)Nc1cc2c(Nc3ccc(F)c(Cl)c3)ncnc2cc1O[C@H]1CCOC1 [Afatinib (BIBW2992)] | 110% | 130%
26 | 10.3 µM | > 45.8 µM | CCCSc1ccc2[nH]c(NC(=O)OC)nc2c1 [Albendazole] | 53% | –

Row | IC50 cell viability (HCT116 [1]; ICRF193 0 nM) | IC50 cell viability (HCT116 [1]; ICRF193 200 nM) | Structure (SMILES) | efficacy (HCT116 [2]; ICRF193 0 nM) | efficacy (HCT116 [2]; ICRF193 200 nM)
27 | > 45.8 µM | 29.1 µM | O=C1c2ccccc2C(=O)c2c1ccc(O)c2O [Alizarin] | – | 47.6%
28 | 16.4 µM | 13 µM | O=S(=O)(O)c1ccc2c(/N=N/c3ccc(S(=O)(=O)O)c4ccccc34)c(O)c(S(=O)(=O)O)cc2c1 [Amaranth] | 49% | 47.6%
29 | 20.6 µM | 16.4 µM | CCCCc1oc2ccccc2c1C(=O)c1cc(I)c(OCCN(CC)CC)c(I)c1 [Amiodarone hydrochloride] | 92.6% | 93%
30 | > 45.8 µM | 18.3 µM | CN(C)CCC=C1c2ccccc2CCc2ccccc21 [Amitriptyline hydrochloride] | – | 51.6%
31 | > 45.8 µM | 16.4 µM | CCOC(=O)C1=C(COCCN)NC(C)=C(C(=O)OC)C1c1ccccc1Cl (stereo not given) [Amlodipine] | – | 88.3%
32 | 18.3 µM | 18.3 µM | CCN(CC)Cc1cc(Nc2ccnc3cc(Cl)ccc23)ccc1O [Amodiaquin dihydrochloride dihydrate] | 85.2% | 101%
33 | 20.6 µM | 20.6 µM | COc1cc(NS(C)(=O)=O)ccc1Nc1c2ccccc2nc2ccccc12 [Amsacrine] | 141% | 128%
34 | 20.6 µM | 29.1 µM | CN1CCc2cccc3c2[C@H]1Cc1ccc(O)c(O)c1-3 [Apomorphine] | 116% | 107%
35 | 23.1 µM | 18.3 µM | C[C@@H](O[C@H]1OCCN(Cc2n[nH]c(=O)[nH]2)[C@H]1c1ccc(F)cc1)c1cc(C(F)(F)F)cc(C(F)(F)F)c1 [Aprepitant] | 113% | 102%
36 | 29.1 µM | 16.4 µM | COC(=O)C1=C(C)NC(C)=C(C(=O)OCC(C)=O)C1c1ccccc1[N+](=O)[O-] (stereo not given) [Aranidipine] | 83.8% | 88.9%
37 | > 45.8 µM | 0.651 µM | [O-][n+]1cccc(/C(Cl)=N/OC[C@H](O)CN2CCCCC2)c1 [Arimoclomol] | – | 65.4%
38 | 11.6 µM | 9.2 µM | O=C1CCc2ccc(OCCCCN3CCN(c4cccc(Cl)c4Cl)CC3)cc2N1 [Aripiprazole] | 52.1% | 59.1%
39 | > 45.8 µM | 29.1 µM | CNCC[C@@H](Oc1ccccc1C)c1ccccc1 [Atomoxetine hydrochloride] | – | 81.3%
40 | 18.3 µM | 18.3 µM | CC(C)c1c(C(=O)Nc2ccccc2)c(-c2ccccc2)c(-c2ccc(F)cc2)n1CC[C@@H](O)C[C@@H](O)CC(=O)O [Atorvastatin calcium] | 60.2% | 70.6%
41 | > 45.8 µM | 18.3 µM | O=C1C(O)=C([C@H]2CC[C@H](c3ccc(Cl)cc3)CC2)C(=O)c2ccccc21 [Atovaquone] | – | 54.1%
42 | 2.59 µM | 2.59 µM | CC(=O)OC[C@H]1O[C@@H]([S-])[C@H](OC(C)=O)[C@@H](OC(C)=O)[C@@H]1OC(C)=O.CCP(CC)CC.[Au+] [Auranofin] | 102% | 96.8%
43 | > 45.8 µM | 0.00461 µM | CC[C@H](C)[C@@H]([C@@H](CC(=O)N1CCC[C@H]1[C@H](OC)[C@@H](C)C(=O)NCCc1ccccc1)OC)N(C)C(=O)[C@@H](NC(=O)[C@H](C(C)C)N(C)C)C(C)C [Auristatin PE] | – | 42.4%
44 | 23.1 µM | 20.6 µM | CNC(=O)c1ccccc1Sc1ccc2c(/C=C/c3ccccn3)n[nH]c2c1 [Axitinib] | 57.5% | 62.1%
45 | > 45.8 µM | 0.206 µM | O=C(CCCN1CCN(c2ccccn2)CC1)c1ccc(F)cc1 [Azaperone] | – | 87.6%
46 | 2.91 µM | 3.66 µM | Cn1cnc([N+](=O)[O-])c1Sc1ncnc2[nH]cnc12 [Azathioprine] | 77.4% | 85.9%
47 | > 45.8 µM | 29.1 µM | CN1CCCC(n2nc(Cc3ccc(Cl)cc3)c3ccccc3c2=O)CC1 (stereo not given) [Azelastine hydrochloride] | – | 65.4%
48 | 23.1 µM | 18.3 µM | CC1=C(C(=O)OC(C)C)C(c2cccc([N+](=O)[O-])c2)C(C(=O)OC2CN(C(c3ccccc3)c3ccccc3)C2)=C(N)N1 (stereo not given) [Azelnidipine] | 124% | 98%
49 | > 45.8 µM | 20.6 µM | CC[C@H]1OC(=O)[C@H](C)[C@@H](O[C@H]2C[C@@](C)(OC)[C@@H](O)[C@H](C)O2)[C@H](C)[C@@H](O[C@@H]2O[C@H](C)C[C@H](N(C)C)[C@H]2O)[C@](C)(O)C[C@@H](C)CN(C)[C@H](C)[C@@H](O)[C@]1(C)O [Azithromycin] | – | 68.7%
50 | 20.6 µM | 23.1 µM | CCCCCCCCCCCCC[N+](C)(C)Cc1ccccc1 [BENZALKONIUM CHLORIDE] | 133% | 124%
51 | > 45.8 µM | > 45.8 µM | O=C(O)/C=C(\CC(=O)O)C(=O)O [trans-Aconitic acid] | – | –

Row | Structure (SMILES) | IC50 cell viability (HCT116 [1]; ICRF193 0 nM) | IC50 cell viability (HCT116 [1]; ICRF193 200 nM) | efficacy (HCT116 [2]; ICRF193 0 nM) | efficacy (HCT116 [2]; ICRF193 200 nM)
52 | CCCC1CCCCN1 (racemic) [dl-Coniine] | > 45.8 µM | 4.11 µM | – | 66.1%
53 | COc1ccc(CCN2CCC(Nc3nc4ccccc4n3Cc3ccc(F)cc3)CC2)cc1 [Astemizole] | 20.6 µM | 16.4 µM | 108% | 102%
54 | CCC(C)C1O[C@]2(C=C[C@@H]1C)C[C@@H]1CC(C/C=C(\C)[C@@H](OC3C[C@H](OC)[C@@H](OC4C[C@H](OC)[C@@H](O)[C@H](C)O4)[C@H](C)O3)[C@@H](C)/C=C/C=C3\COC4[C@H](O)C(C)=CC(C(=O)O1)[C@]34O)O2 (stereo not given in full) [Avermectin B1a] | 8.2 µM | > 45.8 µM | 92.3% | –
